Assay results taken from the NIST ThermoML archive (doi:10.1016/j.jct.2012.03.003).

Assay: xn = mol fraction of the nth substance listed
Settings: Liquid, Vibrating tube method

COc1cc2c(cc1O)CC1c3c(cc(O)c(OC)c3-2)CCN1C (stereo not given) [boldine] + CCCO
Settings | mass density [kg/m3]
323.11 K, 16000 kPa, x1 = 0.0112 | 811.88
323.11 K, 16000 kPa, x1 = 0.0142 | 816.47
323.11 K, 17000 kPa, x1 = 0.0112 | 812.65
323.11 K, 17000 kPa, x1 = 0.0142 | 817.24
323.11 K, 18000 kPa, x1 = 0.0112 | 813.42
323.11 K, 18000 kPa, x1 = 0.0142 | 818
323.11 K, 19000 kPa, x1 = 0.0112 | 814.16
323.11 K, 19000 kPa, x1 = 0.0142 | 818.74
323.11 K, 20000 kPa, x1 = 0.0112 | 814.92
323.11 K, 20000 kPa, x1 = 0.0142 | 819.49
323.12 K, 1000 kPa, x1 = 0.0077 | 792.79
323.12 K, 2000 kPa, x1 = 0.0077 | 793.61
323.12 K, 3000 kPa, x1 = 0.0077 | 794.44
323.12 K, 4000 kPa, x1 = 0.0077 | 795.28
323.12 K, 5000 kPa, x1 = 0.0077 | 796.12
323.12 K, 6000 kPa, x1 = 0.0077 | 796.97
323.12 K, 7000 kPa, x1 = 0.0077 | 797.82
323.12 K, 8000 kPa, x1 = 0.0077 | 798.67
323.12 K, 9000 kPa, x1 = 0.0077 | 799.51
323.12 K, 10000 kPa, x1 = 0.0077 | 800.35
323.12 K, 11000 kPa, x1 = 0.0077 | 801.2
323.12 K, 12000 kPa, x1 = 0.0077 | 802.03
323.12 K, 13000 kPa, x1 = 0.0077 | 802.85
323.12 K, 14000 kPa, x1 = 0.0077 | 803.66
323.12 K, 15000 kPa, x1 = 0.0077 | 804.47
323.12 K, 16000 kPa, x1 = 0.0077 | 805.27
323.12 K, 17000 kPa, x1 = 0.0077 | 806.04
323.12 K, 18000 kPa, x1 = 0.0077 | 806.81
323.12 K, 19000 kPa, x1 = 0.0077 | 807.57
323.12 K, 20000 kPa, x1 = 0.0077 | 808.3
323.14 K, 1000 kPa, x1 = 0.0046 | 788.94
323.14 K, 2000 kPa, x1 = 0.0046 | 789.78
323.14 K, 3000 kPa, x1 = 0.0046 | 790.61
323.14 K, 4000 kPa, x1 = 0.0046 | 791.45
323.14 K, 5000 kPa, x1 = 0.0046 | 792.3
323.14 K, 6000 kPa, x1 = 0.0046 | 793.15
323.14 K, 7000 kPa, x1 = 0.0046 | 794.01
323.14 K, 8000 kPa, x1 = 0.0046 | 794.86
323.14 K, 9000 kPa, x1 = 0.0046 | 795.72
323.14 K, 10000 kPa, x1 = 0.0046 | 796.56
323.14 K, 11000 kPa, x1 = 0.0046 | 797.4
323.14 K, 12000 kPa, x1 = 0.0046 | 798.24
323.14 K, 13000 kPa, x1 = 0.0046 | 799.07
323.14 K, 14000 kPa, x1 = 0.0046 | 799.88
323.14 K, 15000 kPa, x1 = 0.0046 | 800.71
323.14 K, 16000 kPa, x1 = 0.0046 | 801.5
323.14 K, 17000 kPa, x1 = 0.0046 | 802.28
323.14 K, 18000 kPa, x1 = 0.0046 | 803.06
323.14 K, 19000 kPa, x1 = 0.0046 | 803.81
323.14 K, 20000 kPa, x1 = 0.0046 | 804.56
333.04 K, 1000 kPa, x1 = 0.0018 | 774.01
333.04 K, 1000 kPa, x1 = 0.0077 | 784.16
333.04 K, 1000 kPa, x1 = 0.0112 | 790.89
333.04 K, 1000 kPa, x1 = 0.0142 | 795.51
333.04 K, 2000 kPa, x1 = 0.0018 | 774.92
333.04 K, 2000 kPa, x1 = 0.0077 | 785.05
333.04 K, 2000 kPa, x1 = 0.0112 | 791.78
333.04 K, 2000 kPa, x1 = 0.0142 | 796.38
333.04 K, 3000 kPa, x1 = 0.0018 | 775.82
333.04 K, 3000 kPa, x1 = 0.0077 | 785.95
333.04 K, 3000 kPa, x1 = 0.0112 | 792.66
333.04 K, 3000 kPa, x1 = 0.0142 | 797.27
333.04 K, 4000 kPa, x1 = 0.0018 | 776.73
333.04 K, 4000 kPa, x1 = 0.0077 | 786.85
333.04 K, 4000 kPa, x1 = 0.0112 | 793.55
333.04 K, 4000 kPa, x1 = 0.0142 | 798.15
333.04 K, 5000 kPa, x1 = 0.0018 | 777.64
333.04 K, 5000 kPa, x1 = 0.0077 | 787.74
333.04 K, 5000 kPa, x1 = 0.0112 | 794.46
333.04 K, 5000 kPa, x1 = 0.0142 | 799.05
333.04 K, 6000 kPa, x1 = 0.0018 | 778.55
333.04 K, 6000 kPa, x1 = 0.0077 | 788.65
333.04 K, 6000 kPa, x1 = 0.0112 | 795.35
333.04 K, 6000 kPa, x1 = 0.0142 | 799.92
333.04 K, 7000 kPa, x1 = 0.0018 | 779.47
333.04 K, 7000 kPa, x1 = 0.0077 | 789.55
333.04 K, 7000 kPa, x1 = 0.0112 | 796.25
333.04 K, 7000 kPa, x1 = 0.0142 | 800.8
333.04 K, 8000 kPa, x1 = 0.0018 | 780.38
333.04 K, 8000 kPa, x1 = 0.0077 | 790.45
333.04 K, 8000 kPa, x1 = 0.0112 | 797.14
333.04 K, 8000 kPa, x1 = 0.0142 | 801.7
333.04 K, 9000 kPa, x1 = 0.0018 | 781.29
333.04 K, 9000 kPa, x1 = 0.0077 | 791.35
333.04 K, 9000 kPa, x1 = 0.0112 | 798.03
333.04 K, 9000 kPa, x1 = 0.0142 | 802.57
333.04 K, 10000 kPa, x1 = 0.0018 | 782.18
333.04 K, 10000 kPa, x1 = 0.0077 | 792.22
333.04 K, 10000 kPa, x1 = 0.0112 | 798.91
333.04 K, 10000 kPa, x1 = 0.0142 | 803.44
333.04 K, 11000 kPa, x1 = 0.0018 | 783.07
333.04 K, 11000 kPa, x1 = 0.0077 | 793.11
333.04 K, 11000 kPa, x1 = 0.0112 | 799.78
333.04 K, 11000 kPa, x1 = 0.0142 | 804.31
333.04 K, 12000 kPa, x1 = 0.0018 | 783.97
333.04 K, 12000 kPa, x1 = 0.0077 | 793.99
333.04 K, 12000 kPa, x1 = 0.0112 | 800.64
333.04 K, 12000 kPa, x1 = 0.0142 | 805.16
333.04 K, 13000 kPa, x1 = 0.0018 | 784.84
333.04 K, 13000 kPa, x1 = 0.0077 | 794.86
333.04 K, 13000 kPa, x1 = 0.0112 | 801.49
333.04 K, 13000 kPa, x1 = 0.0142 | 806.02
333.04 K, 14000 kPa, x1 = 0.0018 | 785.7
333.04 K, 14000 kPa, x1 = 0.0077 | 795.71
333.04 K, 14000 kPa, x1 = 0.0112 | 802.35
333.04 K, 14000 kPa, x1 = 0.0142 | 806.86
333.04 K, 15000 kPa, x1 = 0.0018 | 786.56
333.04 K, 15000 kPa, x1 = 0.0077 | 796.55
333.04 K, 15000 kPa, x1 = 0.0112 | 803.19
333.04 K, 15000 kPa, x1 = 0.0142 | 807.69
333.04 K, 16000 kPa, x1 = 0.0018 | 787.41
333.04 K, 16000 kPa, x1 = 0.0077 | 797.38
333.04 K, 16000 kPa, x1 = 0.0112 | 804
333.04 K, 16000 kPa, x1 = 0.0142 | 808.51
333.04 K, 17000 kPa, x1 = 0.0018 | 788.23
333.04 K, 17000 kPa, x1 = 0.0077 | 798.2
333.04 K, 17000 kPa, x1 = 0.0112 | 804.81
333.04 K, 17000 kPa, x1 = 0.0142 | 809.32
333.04 K, 18000 kPa, x1 = 0.0018 | 789.05
333.04 K, 18000 kPa, x1 = 0.0077 | 799.02
333.04 K, 18000 kPa, x1 = 0.0112 | 805.61
333.04 K, 18000 kPa, x1 = 0.0142 | 810.12
333.04 K, 19000 kPa, x1 = 0.0018 | 789.86
333.04 K, 19000 kPa, x1 = 0.0077 | 799.81
333.04 K, 19000 kPa, x1 = 0.0112 | 806.39
333.04 K, 19000 kPa, x1 = 0.0142 | 810.91
333.04 K, 20000 kPa, x1 = 0.0018 | 790.65
333.04 K, 20000 kPa, x1 = 0.0077 | 800.56
333.04 K, 20000 kPa, x1 = 0.0112 | 807.16
333.04 K, 20000 kPa, x1 = 0.0142 | 811.68
333.07 K, 1000 kPa, x1 = 0.0046 | 780.3
333.07 K, 2000 kPa, x1 = 0.0046 | 781.23
333.07 K, 3000 kPa, x1 = 0.0046 | 782.1
333.07 K, 4000 kPa, x1 = 0.0046 | 783.02
333.07 K, 5000 kPa, x1 = 0.0046 | 783.92
333.07 K, 6000 kPa, x1 = 0.0046 | 784.83
333.07 K, 7000 kPa, x1 = 0.0046 | 785.74
333.07 K, 8000 kPa, x1 = 0.0046 | 786.64
333.07 K, 9000 kPa, x1 = 0.0046 | 787.54
333.07 K, 10000 kPa, x1 = 0.0046 | 788.44
333.07 K, 11000 kPa, x1 = 0.0046 | 789.33
333.07 K, 12000 kPa, x1 = 0.0046 | 790.21
333.07 K, 13000 kPa, x1 = 0.0046 | 791.08
333.07 K, 14000 kPa, x1 = 0.0046 | 791.94
333.07 K, 15000 kPa, x1 = 0.0046 | 792.79
333.07 K, 16000 kPa, x1 = 0.0046 | 793.62
333.07 K, 17000 kPa, x1 = 0.0046 | 794.45
333.07 K, 18000 kPa, x1 = 0.0046 | 795.27
333.07 K, 19000 kPa, x1 = 0.0046 | 796.06
333.07 K, 20000 kPa, x1 = 0.0046 | 796.84
